According to patent publication US20240301319A1, “PERFUMING COMPOSITIONS” (FIRMNICH SA, priority 2017, published 2024):

Columns and labels:
[1] = Volatility of perfuming compounds (Tables 4 to 10), with top/middle/bottom note type; type: physicochemical
How it was run: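 Volatility is expressed in μg/l in air. Top notes are 70,000 to 100 μg/l, middle notes 99 to 50 μg/l, and bottom notes 49 to 0.1 μg/l. Compounds are grouped by olfactive family: watery, green, fruity, citrus, sweet, gourmand and woody.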

[2] = Odor threshold and odor value of perfuming compounds (Tables 4 to 10)
[3] = Table 4, watery note, top, middle or bottom note
[4] = Table 6, perfuming compounds having a fruity note
[5] = Table 6, perfuming compounds having a fruity note, note type by volatility
[6] = Table 4, watery note, equals volatility divided by odor threshold
[7] = Table 7, citrus note, top, middle or bottom note
[8] = note type (Top/Middle/Bottom) by volatility, perfuming compounds having a green note
[9] = perfuming compounds having a green note
[10] = Table 7, citrus note, equals volatility divided by odor threshold
[11] = Table 8, perfuming compounds having a sweet note
[12] = Table 8, perfuming compounds having a sweet note, note type by volatility
[13] = Table 10, perfuming compounds having a woody note, note type by volatility

## CC(=O)OC(C)CCC=C(C)CCC=C(C)C (stereo not drawn) [1,5,9-TRIMETHYL-4,8-DECADIENYL ACETATE]
[1]; Table 4, watery note
  Volatility (μg/l air): 14.74 μg/l air
[1]; [3]
  Type: bottom (perfuming compounds having a volatility ranging from 49 to 0.1 μg/l in air are referred to as “bottom notes”)
[1]; [4]
  Volatility: 14.74 μg/l air
[1]; [5]
  Type: Bottom
[2]; Table 4, watery note
  Odor Threshold (μg/l air): 3.28E−04 μg/l air
[2]; [6]
  Odor Value: 4.49E+04
[2]; [4]
  Odor Threshold: 3.28E−04 μg/l air
  Odor Value: 4.49E+04

## COCC(C)Cc1ccccc1 (racemic) [(+−)-(3-methoxy-2-methylpropyl)benzene]
[1]; [4]
  Volatility: 587.76 μg/l air
[1]; [5]
  Type: TOP (perfuming compounds having a volatility ranging from 70,000 to 100 μg/l in air are referred to as “top notes”)
[1]; Table 7, citrus note
  Volatility (μg/l air): 587.76 μg/l air
[1]; [7]
  Type: Top
[1]; [8]
  Type: Top
[1]; [9]
  Volatility (μg/l air): 587.76 μg/l air
[2]; Table 7, citrus note
  Odor Threshold (μg/l air): 1.51E−02 μg/l air
[2]; [10]
  Odor Value: 3.89E+04
[2]; [9]
  Odor Threshold (μg/l air): 1.51E−02 μg/l air

## C/C=C/C(=O)[C@@H]1[C@@H](C)C=CCC1(C)C (racemic)
[1]; [11]
  Volatility: 143.53 μg/l air
[1]; [12]
  Type: Top
[1]; Table 9, gourmand note
  Volatility: 143.53 μg/l air
[1]; Table 9, perfuming compounds having a gourmand note, note type by volatility
  Type: Top
[2]; [11]
  Odor Threshold: 1.70E−05 μg/l air
  Odor Value: 8.44E+06
[2]; Table 9, gourmand note
  Odor Threshold: 1.70E−05 μg/l air

## CCC(=O)O[C@H]1C[C@@H]2CC[C@@]1(C)C2(C)C
[1]; [13]
  Type: Top
[1]; Table 10, woody note
  Volatility: 216.42 μg/l air
[2]; Table 10, woody note
  Odor Threshold: 4.55E−02 μg/l air

## CCC=CCC=C/C=C/C(=O)OCC [ETHYL (2E)-2,4,7-DECATRIENOATE]
[1]; [4]
  Volatility: 25.34 μg/l air
[1]; [5]
  Type: Bottom
[1]; [8]
  Type: Bottom
[1]; [9]
  Volatility (μg/l air): 25.34 μg/l air
[2]; [4]
  Odor Threshold: 1.49E−02 μg/l air
  Odor Value: 1.70E+03
[2]; [9]
  Odor Threshold (μg/l air): 1.49E−02 μg/l air

## N#CC(=C1CCCCC1)c1ccccc1 [CYCLOHEXYLIDENE(PHENYL)ACETONITRILE]
[1]; [8]
  Type: Bottom
[1]; [9]
  Volatility (μg/l air): 0.96 μg/l air
[2]; [9]
  Odor Threshold (μg/l air): 3.31E−04 μg/l air

## CC(CC=O)CCCC(C)(C)O (racemic) [(+−)-7-hydroxy-3,7-dimethyloctanal]
[1]; Table 4, watery note
  Volatility (μg/l air): 12.81 μg/l air
[1]; [3]
  Type: bottom (perfuming compounds having a volatility ranging from 49 to 0.1 μg/l in air are referred to as “bottom notes”)
[2]; Table 4, watery note
  Odor Threshold (μg/l air): 6.98E−03 μg/l air
[2]; [6]
  Odor Value: 1.84E+03

## CC(C)C(=O)OCCOc1ccccc1 [2-phenoxyethyl 2-methylpropanoate]
[1]; [4]
  Volatility: 10.05 μg/l air
[1]; [5]
  Type: Bottom
[1]; [8]
  Type: Bottom
[1]; [9]
  Volatility (μg/l air): 10.05 μg/l air
[2]; [4]
  Odor Threshold: 3.01E−02 μg/l air
  Odor Value: 3.34E+02
[2]; [9]
  Odor Threshold (μg/l air): 3.01E−02 μg/l air

## CC/C=C\CCO [(Z)-3-HEXEN-1-OL]
[1]; [8]
  Type: Top
[1]; [9]
  Volatility (μg/l air): 5986.62 μg/l air
[2]; [9]
  Odor Threshold (μg/l air): 1.13E−02 μg/l air

## CC/C=C\CCOC(=O)OC [(3Z)-hex-3-en-1-yl methyl carbonate]
[1]; [4]
  Volatility: 1506.33 μg/l air
[1]; [5]
  Type: TOP (perfuming compounds having a volatility ranging from 70,000 to 100 μg/l in air are referred to as “top notes”)
[1]; [8]
  Type: Top
[1]; [9]
  Volatility (μg/l air): 1506.33 μg/l air
[2]; [9]
  Odor Threshold (μg/l air): 4.58E−02 μg/l air

## CC(C)c1ccc2c(c1)OCC(=O)CO2 [7-ISOPROPYL-2H,4H-1,5-BENZODIOXEPIN-3-ONE]
[1]; Table 4, watery note
  Volatility (μg/l air): 56.74 μg/l air
[1]; [3]
  Type: middle (perfuming compounds having a volatility ranging from 99 to 50 μg/l in air are referred to as “middle notes”)
[2]; Table 4, watery note
  Odor Threshold (μg/l air): 3.20E−06 μg/l air
[2]; [6]
  Odor Value: 1.77E+07

## COC(=O)C1C(C)=CCCC1(C)C (racemic)
[1]; [8]
  Type: Top
[1]; [9]
  Volatility (μg/l air): 2010.91 μg/l air
[2]; [9]
  Odor Threshold (μg/l air): 1.06E−02 μg/l air

## C[C@@H]1CC[C@H]2C(C)(C)[C@H]3C[C@@]12C[C@@H]1OC(C)(C)O[C@@]13C
[1]; [13]
  Type: Bottom
[1]; Table 10, woody note
  Volatility: 0.00 μg/l air
[2]; Table 10, woody note
  Odor Threshold: 3.90E−06 μg/l air

## CC(=O)OCCC(C)CCC=C(C)C (stereo not drawn) [3,7-DIMETHYL-6-OCTENYL ACETATE]
[1]; [4]
  Volatility: 128.72 μg/l air
[1]; [5]
  Type: TOP (perfuming compounds having a volatility ranging from 70,000 to 100 μg/l in air are referred to as “top notes”)
[2]; [4]
  Odor Threshold: 2.75E−02 μg/l air
  Odor Value: 4.68E+03

## CCCCC/C=C\CCC=O [(Z)-4-DECENAL]
[1]; [8]
  Type: Top
[1]; [9]
  Volatility (μg/l air): 629.54 μg/l air
[2]; [9]
  Odor Threshold (μg/l air): 3.78E−05 μg/l air

## CC1OCCC12NCCS2 (racemic)
[1]; [11]
  Volatility: 52.47 μg/l air
[1]; [12]
  Type: Middle
[2]; [11]
  Odor Threshold: 2.53E−06 μg/l air
  Odor Value: 2.07E+07

## C=CCCC(=O)C1=CCCC(C)(C)C1 [1-(5,5-dimethyl-1-cyclohexen-1-yl)-4-penten-1-one]
[1]; [4]
  Volatility: 38.43 μg/l air
[1]; [5]
  Type: Bottom
[1]; [8]
  Type: Bottom
[1]; [9]
  Volatility (μg/l air): 38.43 μg/l air
[2]; [4]
  Odor Threshold: 1.64E−06 μg/l air
  Odor Value: 2.34E+07
[2]; [9]
  Odor Threshold (μg/l air): 1.64E−06 μg/l air

## CCCCCCCCCC=O [DECANAL″]
[1]; Table 4, watery note
  Volatility (μg/l air): 466.56 μg/l air
[1]; [3]
  Type: TOP (perfuming compounds having a volatility ranging from 70,000 to 100 μg/l in air are referred to as “top notes”)
[2]; Table 4, watery note
  Odor Threshold (μg/l air): 1.92E−03 μg/l air
[2]; [6]
  Odor Value: 2.43E+05

## CCCCCCOC(C)=O [HEXYL ACETATE]
[1]; [4]
  Volatility: 2316.04 μg/l air
[1]; [5]
  Type: TOP (perfuming compounds having a volatility ranging from 70,000 to 100 μg/l in air are referred to as “top notes”)
[1]; [8]
  Type: Top
[1]; [9]
  Volatility (μg/l air): 2316.04 μg/l air
[2]; [9]
  Odor Threshold (μg/l air): 1.32E−01 μg/l air

## COc1nccnc1CC(C)C [PYRAZOBUTYLE]
[1]; [8]
  Type: Top
[1]; [9]
  Volatility (μg/l air): 1617.21 μg/l air
[2]; [9]
  Odor Threshold (μg/l air): 7.20E−07 μg/l air

## COC(=O)/C=C/c1ccccc1 [METHYL (E)-3-PHENYL-2-PROPENOATE]
[1]; [4]
  Volatility: 61.65 μg/l air
[1]; [5]
  Type: Middle
[2]; [4]
  Odor Threshold: 3.13E−03 μg/l air
  Odor Value: 1.97E+04

## CCCCCCCCCCC=O [undecanal]
[1]; Table 4, watery note
  Volatility (μg/l air): 178.29 μg/l air
[1]; [3]
  Type: TOP (perfuming compounds having a volatility ranging from 70,000 to 100 μg/l in air are referred to as “top notes”)
[2]; Table 4, watery note
  Odor Threshold (μg/l air): 1.65E−03 μg/l air
[2]; [6]
  Odor Value: 1.08E+05

## CC(=O)OC/C=C(\C)CCC=C(C)C [(E)-3,7-DIMETHYL-2,6-OCTADIENYL ACETATE]
[1]; [5]
  Type: Middle
[1]; [8]
  Type: Middle
[1]; [9]
  Volatility (μg/l air): 79.23 μg/l air
[2]; [4]
  Odor Threshold: 3.57E−02 μg/l air
[2]; [9]
  Odor Threshold (μg/l air): 3.57E−02 μg/l air

## CC(C=O)Cc1ccc(C(C)C)cc1 (racemic) [(+−)-3-(4-isopropylphenyl)-2-methylpropanal]
[1]; Table 4, watery note
  Volatility (μg/l air): 24.85 μg/l air
[1]; [3]
  Type: bottom (perfuming compounds having a volatility ranging from 49 to 0.1 μg/l in air are referred to as “bottom notes”)
[2]; Table 4, watery note
  Odor Threshold (μg/l air): 3.00E−03 μg/l air
[2]; [6]
  Odor Value: 8.28E+03

## CCOC(=O)C(C)CC (racemic) [(+−)-ethyl 2-methylbutanoate]
[1]; [4]
  Volatility: 83769.16 μg/l air
[1]; [5]
  Type: TOP (perfuming compounds having a volatility ranging from 70,000 to 100 μg/l in air are referred to as “top notes”)
[1]; [8]
  Type: Top
[1]; [9]
  Volatility (μg/l air): 83769.16 μg/l air
[2]; [9]
  Odor Threshold (μg/l air): 1.26E−04 μg/l air

## (2R)-2-methyl-4-[(1R)-2,2,3-trimethyl-3-cyclopenten-1-yl]-4-pentenal (A) + (2S)-2-methyl-4-[(1R)-2,2,3-trimethyl-3-cyclopenten-1-yl]-4-pentenal (B)
[1]; Table 4, watery note
  Volatility (μg/l air): 63.49 μg/l air
[1]; [3]
  Type: middle (perfuming compounds having a volatility ranging from 99 to 50 μg/l in air are referred to as “middle notes”)
[2]; Table 4, watery note
  Odor Threshold (μg/l air): 2.22E−03 μg/l air
[2]; [6]
  Odor Value: 2.86E+04

## COc1ccc(COC(C)=O)cc1 [4-METHOXYBENZYL ACETATE]
[1]; [4]
  Volatility: 17.59 μg/l air
[1]; [5]
  Type: Bottom
[2]; [4]
  Odor Threshold: 9.24E−05 μg/l air
  Odor Value: 1.90E+05

## TRICYCLO[5.2.1.0(2,6)]DEC-3-EN-8-YL PROPANOATE (A) + TRICYCLO[5.2.1.0(2,6)]DEC-4-EN-8-YL PROPANOATE (B)
[1]; Table 7, citrus note
  Volatility (μg/l air): 35.82 μg/l air
[1]; [7]
  Type: Bottom
[2]; Table 7, citrus note
  Odor Threshold (μg/l air): 2.44E−04 μg/l air
[2]; [10]
  Odor Value: 1.47E+05

## CCCCCCCCC1CCC(=O)O1 (racemic) [(+−)-5-octyldihydro-2(3H)-furanone]
[1]; [4]
  Volatility: 1.44 μg/l air
[1]; [5]
  Type: Bottom
[2]; [4]
  Odor Threshold: 2.85E−05 μg/l air
  Odor Value: 5.05E+04

## CCCCCCCCC(C)C=O (racemic) [(+−)-2-methyldecanal″]
[1]; Table 4, watery note
  Volatility (μg/l air): 297.74 μg/l air
[1]; [3]
  Type: TOP (perfuming compounds having a volatility ranging from 70,000 to 100 μg/l in air are referred to as “top notes”)
[2]; Table 4, watery note
  Odor Threshold (μg/l air): 9.00E−04 μg/l air
[2]; [6]
  Odor Value: 3.31E+05

## CCCC(=NO)C(C)C [2-METHYL-3-HEXANONE OXIME]
[1]; [8]
  Type: Top
[1]; [9]
  Volatility (μg/l air): 687.75 μg/l air
[2]; [9]
  Odor Threshold (μg/l air): 4.81E−04 μg/l air

## CCCCSCCCC [DIBUTYL SULFIDE]
[1]; [8]
  Type: Top
[1]; [9]
  Volatility (μg/l air): 2766.10 μg/l air
[2]; [9]
  Odor Threshold (μg/l air): 2.34E−02 μg/l air
